Data: patent EP0086757A1, “Derivatives of alpha or beta-mercaptopropionylamidoacetic acids, processes for their preparation and the therapeutic compositions which include them as active principles” (Farmatis S.r.l., priority 1982, dated 1983)
Where two headings read alike, the source gives them in different places.

Assays:
[1] = tested on: glycopeptides of the bronchial mucus; experiment: glycopeptide analysis of bronchial mucus of orally treated patients with bronchial hypersecretion; format: in vivo; settings: comparative test, 70 mg/kg/die
[2] = tested on: bronchial hypersecretion induced in rats with SO2; experiment: bronchial hypersecretion induced with SO2 inhalation; format: in vivo; settings: oral 0.5 g/kg/die for two weeks; 300 ppm SO2 two hours per day, total 90 hours; untreated 80%
Procedure: The inhalation of 300 ppm of […] for two hours per day, for a total period of 90 hours, produced bronchial obstruction in only 12% of the animals compared to the 80% produced in those not treated. […] Finally, with the rats which underwent CCl4 nebulization treatment for 10 days (5 applications, 2.minutes per day), the contemporaneous oral administration of the esters of this invention, at doses of 0.5 g/kg/die, prevented intrabronchial desquamation and reactive hyperplasia of the mucosa to the extent of 60%.

[3] = tested on: rats which underwent CCl4 nebulization treatment; experiment: CCl4 nebulization, bronchial mucosa protection; format: in vivo; settings: oral 0.5 g/kg/die; CCl4 nebulization 10 days, 5 applications, 2 minutes per day
Text: Finally, with the rats which underwent CCl4 nebulization treatment for 10 days (5 applications, 2.minutes per day), the contemporaneous oral administration of the esters of this invention, at doses of 0.5 g/kg/die, prevented intrabronchial desquamation and reactive hyperplasia of the mucosa to the extent of 60%.

[4] = tested on: Carragenin-induce edema in hind paw of the rat; experiment: carragenin-induced hind paw edema (anti-inflammatory activity); format: in vivo, rats; settings: oral by esophagal probe one hour before carragenin; paw volume three hours later
Procedure: The anti-inflammatory activity was investigated on rats by administering the new products,orally,using an esophagal probe. One hour after administration, a subcutaneous injection of 0.05 ml of 1% carragenin was made in the right hind paw and three hours later a plethysmometric evaluation was made of the difference in volume between the two hind paws (WINTER C.A., RISLEY E.A., NUSS G.W., Carragenin-induce edema in hind paw of the rat as an assay for anti-inflammatory drugs. Proc. Soc. Exp. Biol. Med., 111, 544 - 1962).

aerosol histaminic shock = aerosol histaminic shock (antibronchospastic activity); format: in vivo
Procedure: The antibronchospastic activity of the new compounds, in face, was evaluated by pretreating test animals with 2 g/kg of the new compounds, administered by way of an esophagal probe, and then submitting them to aerosol histaminic shock (histamine phosphate 1:80 at about 140 mm Eg). The time was noted between when the aerosol was given and the convulsions began. After two hours of pretreatment, times amounting to 70% of the approximately 120 seconds of the control group were obtained. […] The new compounds, therefore, provide intense and persistent protection against bronchspasm induced experimentally with histamine, in strict correlation with the anti-inflammatory activity reported previously.

acute toxicity (DL50) = format: in vivo
Procedure: In fact, while S-carboxymethylcysteine has a DL50 of 5.18 g/kg, the new thiolic esters' DL50 cannot be determined, i.p., since more than 5 g/kg cannot be administered; but, orally, the DL50 is above 8 g/kg, as with the S-carboymethylcysteine. The subacute, chronic and fetal toxi city was evaluated by mixing the esters with the food.

[5] = tested on: Carragenin-induce edema in hind paw of the rat; settings: comparison value for a classical antiphlogistic; cited from earlier work

## N[C@@H](CSCC(=O)O)C(=O)O [S-carboxymethylcysteine]
[1]
  average increase in sialoglycopeptides: ≤ 75%
  diminution of glycopeptides and mucin: ≤ 45%
[2]
  animals with bronchial obstruction (not protected): 25%
[3]
  prevention of intrabronchial desquamation and reactive hyperplasia of the mucosa: ≤ 40%
[4]
  DE50: not determinable
Aerosol histaminic shock
  difference between the control and tested subjects in time to convulsions: no appreciable difference
Acute toxicity (DL50); i.p. (route only implied for the comparator), more than 5 g/kg cannot be administered
  DL50: 5.18 g/kg
Acute toxicity (DL50); orally
  DL50: above 8 g/kg

## CC(=O)Oc1ccccc1C(=O)O [acetylsalicylic acid]
[5]
  DE50: 100 mg/kg
